According to patent EP1173217B1, “ENHANCED DELIVERY OF NUCLEIC ACID-BASED DRUGS” (Merrion Research I Limited, priority 1999, dated 2000):
Like-named read-outs stand apart in the source and are kept apart here.

Legend:
[1] = system: non-differentiated Caco-2 cells
Method: Caco-2 cells were seeded on coverslips treated with polylysine at a concentration of approximately 2.5 - 5x10^5 cells/ml and grown to confluence. Cells were washed once with PBS without Ca^2+, Mg^2+. 1-2 ml of PBS w/o Ca^2+, Mg^2+ containing antisense oligonucleotides +/- enhancers was added and cells were incubated for 30 min at 37°C. Variations to this protocol by pre-incubating cells with enhancers (40min), washing with PBS w/o Ca^2+, Mg^2+ and then incubating with antisense oligonucleotides for 30min were also analysed.
Two different FITC labelled antisense oligonucleotides were used: FITC-labelled ELNG05 (5'-[…]-3'; complementary to a sequence in the human BCR-Abl mRNA) and FITC-labelled S-PTH-05 (5'-[…]-3', complementary to sequence 153-170 of the human HPT1 receptor mRNA). […] The uptake of antisense oligonucleotides was also analysed in the absence of enhancers for variable periods of time (30min - 60min). Following incubation, cells were washed twice with PBS w/o Ca^2+, Mg^2+ and stained with 1µg/ml TexasRed-DHPE (dihexadecanoylglycerophosphoethanolamine, Molecular Probe T-1395) for 15min at 37°C, washed extensively and fixed with paraformaldeyde pH shift (Barcallo, 1995) and mounted for analysis by confocal laser scanning microscopy (CLSM).
After two washes with PBS w/o Ca^2+ and Mg^2+, the cells were incubated with 2ml of FITC-antisense oligonucleotide (ELNG05) at a concentration of 10µM in PBS w/o Ca^2+ and Mg^2+ and incubated at 37°C for 30min.
Caco-2 cells were incubated with 1ml of antisense +/- enhancers in PBS w/o Ca^2+ and Mg^2+ and incubated for 30min at 37°C. Two different fluorescently labelled antisense oligonucleotides were used in these experiments at a concentration of 10µM: ELNG05 (antisense to BCR-Ab1) and S-PTH-05 (antisense to HPT1 receptor). […] The uptake of antisense was also analysed in the absence of enhancers for 30min and 60min as control.

Caco-2 cells = conditions: cationic lipid (lipofectamine): plasmid DNA complex alone set at 100%; β-galactosidase 24 hours post transfection; enhancer concentration not given in the sentence (C8 30 or 5mM, C10 5 or 1mM tested)

## CCCCCCCCCC(=O)[O-].[Na+] [C10, sodium caprate]
[1]; Experiment a, C10 at 10-13mM pre-incubated 40min, then 10µM FITC-ELNG05 30min
  cell permeation / intracellular staining with TexasRed-DHPE and FITC-oligonucleotide (CLSM): permeated completely the cells
[1]; Experiment b, C10 2.6 mM together with 10µM antisense, 30min
  uptake of antisense (CLSM): did not increase the uptake of antisense
[1]; Experiment b, C10 13mM, 30min
  effect on Caco-2 cell adherence: loss of adherence of Caco-2 cells
[1]; Experiment c, C10 8mM with 10µM antisense, 30min
  staining of cells (CLSM): only punctate staining, similar to the control
[1]; Experiment c, C10 10mM with 10µM antisense, 30min
  staining of cells (CLSM): completely stained
[1]; Experiment c, C10 between 13mM and 8mM, 30min
  effect on cells: destruction of cells
Caco-2 cells
  efficiency of transfection: 245%
